Assay results reported in ChEMBL document CHEMBL6182931, “Chemical Evolution of Aplithianine Class of Serine/Threonine Kinase Inhibitors” (J Med Chem, 2025).
Active and inactive are the calls of the source. No cut-off for these calls is given here.

Columns and labels:
SR = test: Antiproliferative activity against human SR cells assessed as growth inhibition; type: functional
OVCAR-4 = test: Antiproliferative activity against human OVCAR-4 cells assessed as growth inhibition; type: functional, cell-based
NCI/ADR-RES = test: Antiproliferative activity against human NCI/ADR-RES cells assessed as growth inhibition; type: functional, cell-based
LOX IMVI = test: Antiproliferative activity against human LOX IMVI cells assessed as growth inhibition; type: functional
MOLT-4 = test: Antiproliferative activity against human MOLT-4 cells assessed as growth inhibition; type: functional
[1] = Inhibition of DNAJB1-PKAcalpha (unknown origin) using biotinylated-peptide substrate CREB incubated for 45 mins in presence of ATP and cAMP by ELISA; design: species or system Homo sapiens
MDA-MB-468 = test: Antiproliferative activity against human MDA-MB-468 cells assessed as growth inhibition; type: functional, cell-based
Albumin = Albumin (Homo sapiens, UniProt P02768); test: Binding affinity to human serum albumin assessed as protein binding at 10 uM by equilibrium dialysis technique relative to control; type: ADME; details: isolated protein
[2] = target: Dual specificity protein kinase CLK1 (Homo sapiens) (UniProt P49759); test: Inhibition of human CLK1 at 50 nM in presence of ATP by radiometric Hotspot kinase assay relative to control
[3] = target: Dual specificity protein kinase CLK2 (Homo sapiens) (UniProt P49760); test: Inhibition of human CLK2 at 50 nM in presence of ATP by radiometric Hotspot kinase assay relative to control
[4] = target: cAMP-dependent protein kinase catalytic subunit beta (Homo sapiens) (UniProt P22694); test: Inhibition of human PKAbeta at 50 nM in presence of ATP by radiometric Hotspot kinase assay
[5] = Inhibition of DNAJB1-PKAcalpha (unknown origin) overexpressed in mouse NIH/3T3 cells assessed as inhibition of CREB phosphorylation at Ser133 residue preincubated for 30 mins followed by forskolin addition and measured after 30 mins by fluorescence based multilabel reader analysis; type: cell-based; details: NIH3T3
Homo sapiens [6] = organism: Homo sapiens; test: Induction of thermal stabilization of His-tagged DNAJB1-PKAcalpha (unknown origin) incubated for 15 min by differential scanning fluorometric analysis
Homo sapiens [7] = organism: Homo sapiens; test: Induction of thermal stabilization of His-tagged DNAJB1-PKAcalpha (unknown origin) assessed as change in melting temperature incubated for 15 min by differential scanning fluorometric analysis
[8] = target: Dual specificity tyrosine-phosphorylation-regulated kinase 4 (Homo sapiens) (UniProt Q9NR20); test: Inhibition of human DYRK4 at 50 nM in presence of ATP by radiometric Hotspot kinase assay relative to control
[9] = target: T1, Dual specificity tyrosine-phosphorylation-regulated kinase 2 (Homo sapiens) (UniProt Q92630); test: Inhibition of human DYRK2 at 50 nM in presence of ATP by radiometric Hotspot kinase assay relative to control
T1 sequence (whole entry): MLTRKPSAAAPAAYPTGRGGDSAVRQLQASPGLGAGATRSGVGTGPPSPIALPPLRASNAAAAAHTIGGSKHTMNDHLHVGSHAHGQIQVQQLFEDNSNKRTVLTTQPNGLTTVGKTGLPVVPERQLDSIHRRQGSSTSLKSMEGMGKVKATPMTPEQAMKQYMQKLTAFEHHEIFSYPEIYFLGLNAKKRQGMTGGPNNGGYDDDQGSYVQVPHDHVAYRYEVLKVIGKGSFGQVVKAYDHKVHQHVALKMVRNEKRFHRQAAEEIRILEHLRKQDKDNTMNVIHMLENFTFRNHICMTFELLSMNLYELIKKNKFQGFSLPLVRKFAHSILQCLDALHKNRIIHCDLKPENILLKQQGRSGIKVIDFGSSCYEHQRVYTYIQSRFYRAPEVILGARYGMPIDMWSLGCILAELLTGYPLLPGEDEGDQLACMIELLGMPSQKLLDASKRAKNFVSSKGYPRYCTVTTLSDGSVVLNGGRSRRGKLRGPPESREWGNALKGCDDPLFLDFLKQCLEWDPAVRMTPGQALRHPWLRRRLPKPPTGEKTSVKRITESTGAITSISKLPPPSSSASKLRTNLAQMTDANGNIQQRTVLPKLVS

[10] = target: Dual specificity protein kinase CLK4 (Homo sapiens) (UniProt Q9HAZ1); test: Inhibition of human CLK4 at 50 nM in presence of ATP by radiometric Hotspot kinase assay relative to control
[11] = target: Dual specificity protein kinase CLK3 (Homo sapiens) (UniProt P49761); test: Inhibition of human CLK3 at 50 nM in presence of ATP by radiometric Hotspot kinase assay relative to control
[12] = target: T2, Dual specificity tyrosine-phosphorylation-regulated kinase 3 (Homo sapiens) (UniProt O43781); test: Inhibition of human DYRK3 at 50 nM in presence of ATP by radiometric Hotspot kinase assay relative to control
T2 sequence (whole entry): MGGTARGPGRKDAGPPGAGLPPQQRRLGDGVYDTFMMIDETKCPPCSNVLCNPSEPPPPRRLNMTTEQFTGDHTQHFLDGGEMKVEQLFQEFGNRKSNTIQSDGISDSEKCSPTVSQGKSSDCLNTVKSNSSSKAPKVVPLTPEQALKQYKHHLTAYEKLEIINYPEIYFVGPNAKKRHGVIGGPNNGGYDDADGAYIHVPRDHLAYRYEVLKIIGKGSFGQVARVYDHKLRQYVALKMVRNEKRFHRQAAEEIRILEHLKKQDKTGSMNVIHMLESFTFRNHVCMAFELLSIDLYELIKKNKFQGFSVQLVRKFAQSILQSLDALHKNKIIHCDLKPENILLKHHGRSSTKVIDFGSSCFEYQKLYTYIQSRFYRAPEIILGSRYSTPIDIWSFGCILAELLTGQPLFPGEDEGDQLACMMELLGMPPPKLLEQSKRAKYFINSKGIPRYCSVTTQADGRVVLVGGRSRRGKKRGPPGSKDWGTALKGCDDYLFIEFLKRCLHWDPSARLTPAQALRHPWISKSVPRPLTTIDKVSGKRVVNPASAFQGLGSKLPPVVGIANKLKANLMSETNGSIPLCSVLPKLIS

[13] = target: Dual specificity tyrosine-phosphorylation-regulated kinase 1A (Homo sapiens) (UniProt Q13627); test: Inhibition of human DYRK1A at 50 nM in presence of ATP by radiometric Hotspot kinase assay relative to control
[14] = target: Dual specificity tyrosine-phosphorylation-regulated kinase 1B (Homo sapiens) (UniProt Q9Y463); test: Inhibition of human DYRK1B at 50 nM in presence of ATP by radiometric Hotspot kinase assay relative to control
[15] = target: T3, cGMP-dependent protein kinase 1 (Homo sapiens) (UniProt Q13976); details: dose 50.0 nM
T3 sequence (whole entry): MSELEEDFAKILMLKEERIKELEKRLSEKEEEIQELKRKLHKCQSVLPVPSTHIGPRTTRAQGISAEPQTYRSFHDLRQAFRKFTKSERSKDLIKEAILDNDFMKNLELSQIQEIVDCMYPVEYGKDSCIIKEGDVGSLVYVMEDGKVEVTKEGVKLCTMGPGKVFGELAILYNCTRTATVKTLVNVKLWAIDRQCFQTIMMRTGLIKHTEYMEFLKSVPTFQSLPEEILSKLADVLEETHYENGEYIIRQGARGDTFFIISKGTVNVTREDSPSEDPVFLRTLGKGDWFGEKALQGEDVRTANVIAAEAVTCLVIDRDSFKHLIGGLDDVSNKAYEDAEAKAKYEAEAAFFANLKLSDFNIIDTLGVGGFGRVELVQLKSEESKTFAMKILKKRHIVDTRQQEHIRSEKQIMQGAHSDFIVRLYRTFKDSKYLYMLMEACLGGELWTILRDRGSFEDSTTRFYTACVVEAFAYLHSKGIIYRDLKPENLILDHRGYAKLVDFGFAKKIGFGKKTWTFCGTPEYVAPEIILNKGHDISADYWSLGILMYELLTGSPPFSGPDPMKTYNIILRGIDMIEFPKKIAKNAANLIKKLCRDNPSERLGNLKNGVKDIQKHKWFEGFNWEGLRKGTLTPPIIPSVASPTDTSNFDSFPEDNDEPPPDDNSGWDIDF
Description: Inhibition of human PKG1alpha at 50 nM in presence of ATP by radiometric Hotspot kinase assay

[16] = target: cAMP-dependent protein kinase catalytic subunit alpha (Homo sapiens) (UniProt P17612); details: dose 50.0 nM
Description: Inhibition of human PKAalpha at 50 nM in presence of ATP by radiometric Hotspot kinase assay relative to control

Sequence of Dual specificity protein kinase CLK2 (Homo sapiens) (P49760 whole entry, looked up): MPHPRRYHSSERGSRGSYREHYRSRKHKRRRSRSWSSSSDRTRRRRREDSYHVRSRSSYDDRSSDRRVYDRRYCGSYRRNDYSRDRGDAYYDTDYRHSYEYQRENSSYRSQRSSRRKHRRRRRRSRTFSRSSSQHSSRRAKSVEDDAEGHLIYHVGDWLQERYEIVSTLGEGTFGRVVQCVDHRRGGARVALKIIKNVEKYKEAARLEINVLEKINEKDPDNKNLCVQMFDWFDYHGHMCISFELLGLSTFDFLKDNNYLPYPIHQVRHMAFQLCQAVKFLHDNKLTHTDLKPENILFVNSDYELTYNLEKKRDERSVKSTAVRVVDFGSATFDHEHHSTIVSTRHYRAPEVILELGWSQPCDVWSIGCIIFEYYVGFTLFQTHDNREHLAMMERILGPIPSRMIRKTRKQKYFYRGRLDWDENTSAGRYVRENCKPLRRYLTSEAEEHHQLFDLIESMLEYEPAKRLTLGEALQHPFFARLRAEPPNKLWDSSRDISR
Sequence of Dual specificity protein kinase CLK1 (Homo sapiens) (P49759 whole entry, looked up): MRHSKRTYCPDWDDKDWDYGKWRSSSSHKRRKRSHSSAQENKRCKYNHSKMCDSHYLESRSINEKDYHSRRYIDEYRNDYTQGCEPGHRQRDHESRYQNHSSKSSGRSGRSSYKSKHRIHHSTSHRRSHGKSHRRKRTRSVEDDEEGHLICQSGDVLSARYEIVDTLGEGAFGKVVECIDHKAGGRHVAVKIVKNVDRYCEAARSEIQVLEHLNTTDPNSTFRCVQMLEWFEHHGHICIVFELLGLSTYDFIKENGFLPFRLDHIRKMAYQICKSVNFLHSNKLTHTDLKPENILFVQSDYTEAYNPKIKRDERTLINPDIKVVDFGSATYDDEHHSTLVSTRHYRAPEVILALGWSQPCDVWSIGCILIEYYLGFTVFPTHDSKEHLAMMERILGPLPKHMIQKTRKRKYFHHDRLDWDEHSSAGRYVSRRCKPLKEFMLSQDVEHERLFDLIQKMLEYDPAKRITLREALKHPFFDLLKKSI
Sequence of Dual specificity tyrosine-phosphorylation-regulated kinase 1B (Homo sapiens) (Q9Y463 whole entry, looked up): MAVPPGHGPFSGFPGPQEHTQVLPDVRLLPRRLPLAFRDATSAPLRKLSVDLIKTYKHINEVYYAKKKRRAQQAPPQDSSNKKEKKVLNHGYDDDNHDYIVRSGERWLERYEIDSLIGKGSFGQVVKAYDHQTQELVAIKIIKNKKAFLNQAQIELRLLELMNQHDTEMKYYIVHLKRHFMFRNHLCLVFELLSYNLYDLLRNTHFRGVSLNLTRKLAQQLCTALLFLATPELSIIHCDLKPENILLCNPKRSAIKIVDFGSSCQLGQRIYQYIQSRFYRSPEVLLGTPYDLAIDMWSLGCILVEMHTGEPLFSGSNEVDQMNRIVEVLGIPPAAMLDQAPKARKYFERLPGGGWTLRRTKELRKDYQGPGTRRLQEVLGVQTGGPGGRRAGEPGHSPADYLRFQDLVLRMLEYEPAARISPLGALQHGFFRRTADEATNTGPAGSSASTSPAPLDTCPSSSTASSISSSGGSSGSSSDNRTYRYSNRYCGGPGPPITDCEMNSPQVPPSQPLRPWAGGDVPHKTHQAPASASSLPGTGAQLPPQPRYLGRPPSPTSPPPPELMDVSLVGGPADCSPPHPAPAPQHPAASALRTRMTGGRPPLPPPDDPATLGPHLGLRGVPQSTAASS
Sequence of Dual specificity tyrosine-phosphorylation-regulated kinase 4 (Homo sapiens) (Q9NR20 whole entry): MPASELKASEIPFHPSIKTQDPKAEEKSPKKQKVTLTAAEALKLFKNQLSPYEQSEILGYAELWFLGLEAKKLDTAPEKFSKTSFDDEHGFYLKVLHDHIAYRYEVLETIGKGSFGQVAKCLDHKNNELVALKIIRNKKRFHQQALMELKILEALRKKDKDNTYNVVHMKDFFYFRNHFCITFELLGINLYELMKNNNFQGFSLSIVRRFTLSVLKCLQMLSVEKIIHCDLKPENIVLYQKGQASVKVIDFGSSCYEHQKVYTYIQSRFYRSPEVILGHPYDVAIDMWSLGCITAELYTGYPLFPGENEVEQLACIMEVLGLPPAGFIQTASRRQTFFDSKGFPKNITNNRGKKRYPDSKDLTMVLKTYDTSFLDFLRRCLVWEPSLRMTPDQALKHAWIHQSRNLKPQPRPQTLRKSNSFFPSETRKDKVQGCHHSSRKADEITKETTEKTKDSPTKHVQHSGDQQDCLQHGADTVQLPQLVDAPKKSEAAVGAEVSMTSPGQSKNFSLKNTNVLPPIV
Sequence of Dual specificity protein kinase CLK4 (Homo sapiens) (Q9HAZ1 whole entry, looked up): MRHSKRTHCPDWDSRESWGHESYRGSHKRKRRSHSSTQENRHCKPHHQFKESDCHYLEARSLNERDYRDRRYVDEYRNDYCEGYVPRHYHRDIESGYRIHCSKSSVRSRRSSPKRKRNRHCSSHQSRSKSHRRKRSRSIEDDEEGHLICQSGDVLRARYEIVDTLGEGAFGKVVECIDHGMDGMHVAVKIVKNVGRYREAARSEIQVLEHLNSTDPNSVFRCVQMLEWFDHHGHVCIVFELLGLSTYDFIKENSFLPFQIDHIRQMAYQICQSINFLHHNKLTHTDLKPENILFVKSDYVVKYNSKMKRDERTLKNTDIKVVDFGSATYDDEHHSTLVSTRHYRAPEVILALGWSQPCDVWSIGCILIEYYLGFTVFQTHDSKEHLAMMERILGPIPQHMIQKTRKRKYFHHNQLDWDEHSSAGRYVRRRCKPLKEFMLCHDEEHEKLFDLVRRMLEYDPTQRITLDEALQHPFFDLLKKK
Sequence of Dual specificity protein kinase CLK3 (Homo sapiens) (P49761 whole entry, looked up): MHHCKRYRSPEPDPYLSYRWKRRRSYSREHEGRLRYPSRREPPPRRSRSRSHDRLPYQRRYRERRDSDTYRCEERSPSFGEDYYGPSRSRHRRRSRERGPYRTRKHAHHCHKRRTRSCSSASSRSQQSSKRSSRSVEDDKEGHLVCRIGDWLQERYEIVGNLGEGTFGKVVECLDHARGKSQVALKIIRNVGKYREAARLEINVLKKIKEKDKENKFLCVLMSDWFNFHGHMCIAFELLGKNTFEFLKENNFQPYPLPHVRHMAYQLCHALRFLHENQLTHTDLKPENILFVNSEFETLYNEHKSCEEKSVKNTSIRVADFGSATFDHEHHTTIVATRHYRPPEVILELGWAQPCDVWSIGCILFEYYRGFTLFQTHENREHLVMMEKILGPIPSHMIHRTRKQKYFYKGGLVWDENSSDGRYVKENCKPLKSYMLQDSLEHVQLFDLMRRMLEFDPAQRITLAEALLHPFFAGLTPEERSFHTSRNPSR
Sequence of Albumin (P02768 whole entry): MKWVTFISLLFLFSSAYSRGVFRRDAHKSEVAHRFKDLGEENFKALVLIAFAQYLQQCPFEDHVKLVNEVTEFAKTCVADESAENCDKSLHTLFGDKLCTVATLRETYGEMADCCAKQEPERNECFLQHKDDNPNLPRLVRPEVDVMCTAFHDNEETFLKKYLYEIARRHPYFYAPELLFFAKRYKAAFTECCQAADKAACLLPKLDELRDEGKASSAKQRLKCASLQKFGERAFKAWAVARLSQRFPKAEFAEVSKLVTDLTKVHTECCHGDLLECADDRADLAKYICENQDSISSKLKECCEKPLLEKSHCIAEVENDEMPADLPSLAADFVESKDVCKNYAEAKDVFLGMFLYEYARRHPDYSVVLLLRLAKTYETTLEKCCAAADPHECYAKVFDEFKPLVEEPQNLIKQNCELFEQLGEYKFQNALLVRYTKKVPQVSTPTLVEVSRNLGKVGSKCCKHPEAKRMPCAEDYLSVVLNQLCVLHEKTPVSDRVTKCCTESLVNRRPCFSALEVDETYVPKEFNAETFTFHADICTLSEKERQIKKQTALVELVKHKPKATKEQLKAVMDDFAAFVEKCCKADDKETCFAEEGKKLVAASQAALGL

SMILES | Activity (SR) | Activity (OVCAR-4) | Activity (NCI/ADR-RES) | GI50 (LOX IMVI) | Activity (MOLT-4) | IC50 [1] | Activity (MDA-MB-468) | IC50 [5] | other results
C1=C(c2ccnc3[nH]ccc23)SCCN1c1ncnc2occc12 | Active | inactive | inactive | > 1000 nM | Active | 19 nM | Active |  | 
Cn1cncc1C1=CN(c2ncnc3[nH]cnc23)CCS1 |  |  |  |  |  |  |  |  | PB (Albumin): 98%; inhibition [2]: Active; inhibition [3]: Active; inhibition [4]: Active
Cc1c[nH]c2ncnc(N3C=C(c4cncn4C)SCC3)c12 | Active | inactive | inactive | > 1000 nM | Active | 92 nM | Active | 8200 nM | 
C[C@@]1(N)CCCN(C(=O)C2=CN(c3ncnc4[nH]ccc34)CCS2)C1 | Active | inactive | inactive | > 1000 nM | Active |  | Active | 4400 nM | 
Cn1cncc1C1=CN(c2ncnc3[nH]ccc23)CCS1 | Active | inactive | inactive | > 1000 nM | Active | 150 nM | Active | > 10000 nM | 
C1=C(c2ccnc3[nH]ccc23)SCCN1c1ccncn1 | Active | inactive | inactive | > 1000 nM | Active | 6.3 nM | Active | 282 nM | Activity (Homo sapiens [6]): Dose-dependent-effect; ΔTm (Homo sapiens [7]): 7.9 °C
C1=C(c2ccnc3[nH]ccc23)SCCN1c1ncnc2sccc12 | Active | inactive | inactive | > 1000 nM | Active | 310 nM | Active |  | 
Cn1cc(C2=CN(c3ncnc4[nH]ccc34)CCS2)cn1 | Active | inactive | inactive | > 1000 nM | Active | 440 nM | Active |  | 
C1=C(c2ccnc3[nH]ccc23)SCCN1c1ncnc2[nH]ccc12 | Active | inactive | inactive | > 1000 nM | Active |  | Active |  | inhibition [8]: < 50%; inhibition [2]: < 50%; inhibition [9]: < 50%; inhibition [10]: < 50%; inhibition [11]: < 50%; inhibition [12]: < 50%; inhibition [13]: < 50%; inhibition [3]: < 50%; inhibition [4]: Active; inhibition [14]: < 50%; inhibition [15]: Active
Cn1cncc1N1C=C(c2ccnc3[nH]ccc23)SCC1 | Active | inactive | inactive | > 1000 nM | Active | 25 nM | Active | 5560 nM | inhibition [8]: < 50%; inhibition [2]: < 50%; inhibition [9]: < 50%; inhibition [10]: < 50%; Activity (Homo sapiens [6]): Dose-dependent-effect; inhibition [11]: < 50%; inhibition [12]: < 50%; ΔTm (Homo sapiens [7]): 6 °C; inhibition [13]: < 50%; inhibition [3]: < 50%; inhibition [16]: 47%; inhibition [4]: Active; inhibition [14]: < 50%; inhibition [15]: Active
C[C@H]1CCN(C(=O)C2=CN(c3ncnc4[nH]ccc34)CCS2)C[C@@H]1N |  |  |  |  |  | 7 nM |  | 2500 nM | 
Cn1cnc(Br)c1C1=CN(c2ncnc3[nH]cnc23)CCS1 | Active | inactive | inactive | > 1000 nM | Active |  | Active |  | Activity (Homo sapiens [6]): Dose-dependent-effect; ΔTm (Homo sapiens [7]): 3.1 °C
Cn1cncc1C1=CN(c2ccnc3[nH]ccc23)CCS1 | Active | inactive | inactive | > 1000 nM | Active | 860 nM | Active |  | inhibition [2]: Active; inhibition [16]: 1.7%; inhibition [15]: Active
Cc1cc(N2C=C(c3ccnc4[nH]ccc34)SCC2)ncn1 | Active | inactive | inactive | > 1000 nM | Active | 200 nM | Active |  | 
C[C@@H]1C[C@@H](N)CN(C(=O)C2=CN(c3ncnc4[nH]ccc34)CCS2)C1 | Active | inactive | inactive | > 1000 nM | Active | 6 nM | Active | 2700 nM | 
C[C@@]1(N)CCCN(C(=O)C2=CN(c3ccnc4[nH]ccc34)CCS2)C1 |  |  |  |  |  | 16 nM |  | 3600 nM | 
